Measured values: ChEMBL document CHEMBL1201862, “PubChem BioAssay data set” (2004)
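Interpolation was linear, between the two tested concentrations surrounding the appropriate level; five concentrations were tested over 48 hours in 96-well plates. Here, GI50 denotes the concentration required for 50% inhibition of growth.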 Calls of active or inactive are those of the source. Rule as the data show it: active = GI50 up to about 1.1 µM and inactive = higher.

Key:
Assay in all cases: DTP human tumour cell line panel, 48 h
MOLT-4 = test system: MOLT-4
SF-268 = test system: SF-268
786-0 = test system: 786-0
SF-295 = test system: SF-295
UACC-62 = test system: UACC-62
SK-MEL-2 = test system: SK-MEL-2
Malme-3M = test system: Malme-3M
ACHN = test system: ACHN
IGROV-1 = test system: IGROV-1
Hs-578T = test system: Hs-578T
SK-MEL-5 = test system: SK-MEL-5
MDA-MB-435 = test system: MDA-MB-435
OVCAR-4 = test system: OVCAR-4
DU-145 = test system: DU-145
SK-OV-3 = test system: SK-OV-3
HL-60 = test system: HL-60
MDA-MB-231 = test system: MDA-MB-231
KM12 = test system: KM12
SNB-75 = test system: SNB-75
EKVX = test system: EKVX

Measured: GI50

COC(=O)/C=C\[C@@H]1[C@H](C)N1S(=O)(=O)c1ccc(C)cc1 (stereo not given in full)
inactive: MOLT-4 > 100 µM | SF-268 > 100 µM | 786-0 > 100 µM | SF-295 > 100 µM | UACC-62 > 100 µM | SK-MEL-2 > 100 µM | Malme-3M > 100 µM | ACHN > 100 µM | IGROV-1 > 100 µM | Hs-578T > 100 µM | SK-MEL-5 > 100 µM | MDA-MB-435 > 100 µM | OVCAR-4 > 100 µM | DU-145 > 100 µM | SK-OV-3 > 100 µM | HL-60 > 100 µM | MDA-MB-231 > 100 µM

C[C@]12C(=O)C=CCC1=CC[C@@H]1[C@@H]2[C@H]2CC3(O)C(=O)O[C@@]4(C)[C@H]5C[C@@]6(C)[C@@H]7[C@@]2(O)[C@]1(OC[C@H]6C(=O)O5)O[C@]734 (stereo not given in full)
inactive: KM12 30.5 µM | MOLT-4 23.2 µM | SF-268 37.1 µM | 786-0 34.5 µM | SF-295 57.4 µM | UACC-62 26.4 µM | SNB-75 54.7 µM | SK-MEL-2 23 µM | Malme-3M 74.8 µM | ACHN 61.9 µM | IGROV-1 40.1 µM | Hs-578T 51.1 µM | SK-MEL-5 50 µM | MDA-MB-435 36.6 µM | OVCAR-4 54.3 µM | DU-145 58.2 µM | EKVX 43.9 µM | HL-60 17.5 µM | MDA-MB-231 43.7 µM

CCO/C=N\C1=C(C#N)SC2=N/C(=C\c3ccco3)C(=O)N21
inactive: KM12 > 100 µM | MOLT-4 > 100 µM | SF-268 > 100 µM | 786-0 > 100 µM | SF-295 > 100 µM | SNB-75 > 100 µM | SK-MEL-2 > 100 µM | Malme-3M > 100 µM | ACHN > 100 µM | IGROV-1 > 100 µM | Hs-578T > 100 µM | SK-MEL-5 > 100 µM | MDA-MB-435 > 100 µM | OVCAR-4 > 100 µM | DU-145 > 100 µM | SK-OV-3 > 100 µM | EKVX > 100 µM | HL-60 > 100 µM | MDA-MB-231 > 100 µM

O=c1c(Cc2ccc(Cl)cc2)nnc2sc(-c3ccc([N+](=O)[O-])cc3)nn12
inactive: KM12 26.4 µM | MOLT-4 > 100 µM | SF-268 32.1 µM | 786-0 33.3 µM | SF-295 45.2 µM | UACC-62 14.2 µM | SK-MEL-2 15.6 µM | Malme-3M 23.4 µM | ACHN 25.9 µM | IGROV-1 36.9 µM | Hs-578T 42 µM | MDA-MB-435 14.5 µM | OVCAR-4 28.7 µM | DU-145 29.8 µM | SK-OV-3 38.3 µM | EKVX 23.2 µM | HL-60 24.4 µM | MDA-MB-231 21 µM

O=C(CN1CCOCC1)c1ccc2[nH]c(=O)oc2c1
inactive: KM12 > 100 µM | MOLT-4 > 100 µM | SF-268 > 100 µM | 786-0 > 100 µM | SF-295 > 100 µM | UACC-62 > 100 µM | SNB-75 77.4 µM | SK-MEL-2 > 100 µM | Malme-3M > 100 µM | ACHN > 100 µM | IGROV-1 > 100 µM | Hs-578T > 100 µM | SK-MEL-5 > 100 µM | MDA-MB-435 > 100 µM | DU-145 > 100 µM | SK-OV-3 > 100 µM | EKVX > 100 µM | HL-60 > 100 µM | MDA-MB-231 > 100 µM

CC12CC(C/C1=N/O)C(C)(C)C2 (stereo not given)
inactive: KM12 > 100 µM | SF-268 > 100 µM | 786-0 > 100 µM | SF-295 > 100 µM | UACC-62 > 100 µM | SNB-75 > 100 µM | Malme-3M > 100 µM | ACHN > 100 µM | IGROV-1 > 100 µM | Hs-578T > 100 µM | SK-MEL-5 > 100 µM | MDA-MB-435 > 100 µM | OVCAR-4 > 100 µM | DU-145 > 100 µM | SK-OV-3 > 100 µM | EKVX > 100 µM | HL-60 > 100 µM | MDA-MB-231 > 100 µM

O=C(c1ccccc1)C1C(C(=O)c2ccccc2)C(c2ccccc2)N(c2ccccc2)C1c1ccccc1 (stereo not given)
inactive: MOLT-4 > 100 µM | SF-268 > 100 µM | 786-0 > 100 µM | SF-295 > 100 µM | UACC-62 > 100 µM | SK-MEL-2 > 100 µM | Malme-3M > 100 µM | ACHN > 100 µM | IGROV-1 > 100 µM | Hs-578T 48 µM | SK-MEL-5 > 100 µM | MDA-MB-435 > 100 µM | DU-145 > 100 µM | EKVX > 100 µM | HL-60 5.48 µM | MDA-MB-231 > 100 µM

Cc1ccc(-c2n[nH]c(=O)n2/N=C\c2ccccc2O)cc1
inactive: KM12 > 100 µM | MOLT-4 > 100 µM | SF-268 > 100 µM | 786-0 > 100 µM | SF-295 > 100 µM | SNB-75 > 100 µM | SK-MEL-2 > 100 µM | Malme-3M > 100 µM | ACHN > 100 µM | IGROV-1 > 100 µM | Hs-578T 51.4 µM | SK-MEL-5 > 100 µM | MDA-MB-435 > 100 µM | OVCAR-4 > 100 µM | DU-145 > 100 µM | SK-OV-3 81.3 µM | EKVX > 100 µM | HL-60 > 100 µM | MDA-MB-231 68.5 µM
